Experimental data as given in patent US20250195521A1 (Revolution Medicines, Inc., priority 2020, published 2025).
Where “and” joins values, the source holds several entries; their conditions need not be identical. Identical values can stand only once.

What was measured:
[1] = tested on: Capan-1 cells (K-Ras G12V); test: CellTiter-Glo cell viability, Capan-1; format: cell-based, human; settings: Homo sapiens, CAPAN-1, 120 h, K-Ras G12V, 5-day treatment; read-out: Capan-1 Cell Viability IC50
Method in brief: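 Endpoint: CellTiter-Glo luminescence on day 5, following ~30 min at room temperature. Data as (sample/mean DMSO)×100, four-parameter logistic fit.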

KRAS G12C = KRAS G12C (Homo sapiens (Human), UniProt P01116+P62937, G12C); test: Ras-Raf disruption/FRET/MOA assay (BRAF RBD, Cyclophilin A); format: biochemical; settings: read-out: KRAS G12C FRET IC50
Method in brief: (§1)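 TR-FRET read after 1.5 h with 10 nM anti-His Eu-W1024 and 50 nM anti-GST APC, following 3 h at 25 °C of GMPPNP-loaded His6-Ras (12.5 nM), GST-BRAF RBD (50 nM) and Cyclophilin A (25 μM) with compound from 30 μM final, 10 points, 3-fold. IC50 reported; pH 7.3 HEPES, 100 mM NaCl.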

KRAS G12D = KRAS G12D (Homo sapiens (Human), UniProt P01116+P62937, G12D); test: as above; format: biochemical; settings: read-out: KRAS G12D FRET IC50
Method in brief: as §1

KRAS G12S = KRAS G12S (Homo sapiens (Human), UniProt P01116+P62937, G12S); test: as above; format: biochemical; settings: read-out: KRAS G12S FRET IC50
Method in brief: as §1

KRAS G12V = KRAS G12V (Homo sapiens (Human), UniProt P01116+P62937, G12V); test: as above; format: biochemical; settings: read-out: KRAS G12V FRET IC50
Method in brief: as §1

KRAS G13C = KRAS G13C (Homo sapiens (Human), UniProt P01116+P62937, G13C); test: as above; format: biochemical; settings: read-out: KRAS G13C FRET IC50
Method in brief: as §1

KRAS G13D = KRAS G13D (Homo sapiens (Human), UniProt P01116+P62937, G13D); test: as above; format: biochemical; settings: read-out: KRAS G13D FRET data IC50
Method in brief: as §1

KRAS Q61H = KRAS Q61H (Homo sapiens (Human), UniProt P01116+P62937, Q61H); test: as above; format: biochemical
Method in brief: as §1

KRAS WT = KRAS WT (Homo sapiens (Human), UniProt P01116+P62937); test: as above; format: biochemical; settings: read-out: KRAS WT FRET data IC50
Method in brief: as §1

NRAS G12C = NRAS G12C (Homo sapiens (Human), UniProt P01111+P62937, G12C); test: as above; format: biochemical; settings: read-out: NRAS G12C FRET data IC50
Method in brief: (§2)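 Ras-GMPPNP (12.5 nM), BRAF RBD (50 nM) and 25 μM Cyclophilin A were incubated with compound for 3 h at 25° C, then detected 1.5 h with anti-His Eu and anti-GST APC; IC50 values follow from the reduced TR-FRET ratio.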

NRAS Q61K = NRAS Q61K (Homo sapiens (Human), UniProt P01111+P62937, Q61K); test: as above; format: biochemical
Method in brief: as §2

NRAS Q61R = NRAS Q61R (Homo sapiens (Human), UniProt P01111+P62937, Q61R); test: as above; format: biochemical
Method in brief: as §2

NRAS WT = NRAS WT (Homo sapiens (Human), UniProt P01111+P62937); test: as above; format: biochemical
Method in brief: as §2

[2] = tested on: K-Ras G12C (NCI-H358 cells); test: Potency assay: pERK in NCI-H358 cells; format: cell-based, human; settings: Homo sapiens; NCI-H358 cells, 4 hours; read-out: pERK EC50 (H358 KRAS G12C)
Method in brief: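 Cells plated the day before were exposed for 4 h at 37° C, 5% CO2 to a 10-point, 3-fold DMSO dilution series (10 mM top stock), in duplicate. Phospho-ERK was read by AlphaLISA SureFire Ultra or by In-Cell Western with DRAQ5 DNA stain, and IC50 came from a 4-parameter sigmoidal fit.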

NRAS Q61K, sequence (P01111 whole entry Q61K): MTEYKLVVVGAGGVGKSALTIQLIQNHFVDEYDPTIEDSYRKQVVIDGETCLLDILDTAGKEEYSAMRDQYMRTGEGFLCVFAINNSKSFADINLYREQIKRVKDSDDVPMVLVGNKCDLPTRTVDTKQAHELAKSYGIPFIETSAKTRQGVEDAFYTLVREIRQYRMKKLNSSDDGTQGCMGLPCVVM
NRAS Q61K, sequence (P62937 whole entry): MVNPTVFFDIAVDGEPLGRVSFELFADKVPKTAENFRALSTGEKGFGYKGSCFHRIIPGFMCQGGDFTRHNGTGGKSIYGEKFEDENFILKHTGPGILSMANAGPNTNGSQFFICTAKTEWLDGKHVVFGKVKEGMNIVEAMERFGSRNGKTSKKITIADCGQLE
KRAS WT, sequence (P01116 other isoform, or with tags, fused parts or gaps): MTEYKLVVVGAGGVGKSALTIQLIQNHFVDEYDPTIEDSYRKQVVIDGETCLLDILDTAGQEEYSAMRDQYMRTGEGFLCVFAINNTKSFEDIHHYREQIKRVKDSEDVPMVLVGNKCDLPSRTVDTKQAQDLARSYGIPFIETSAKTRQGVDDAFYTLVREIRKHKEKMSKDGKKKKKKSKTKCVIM
KRAS WT, sequence (P62937 whole entry): as the sequence (P62937 whole entry) above
KRAS Q61H, sequence (P01116 other isoform, or with tags, fused parts or gaps Q61H): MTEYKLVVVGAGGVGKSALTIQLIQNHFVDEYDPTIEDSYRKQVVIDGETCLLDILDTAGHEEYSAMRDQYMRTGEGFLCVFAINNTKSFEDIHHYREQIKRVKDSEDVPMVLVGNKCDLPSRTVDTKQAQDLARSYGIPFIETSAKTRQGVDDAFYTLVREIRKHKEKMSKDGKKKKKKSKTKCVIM
KRAS Q61H, sequence (P62937 whole entry): as the sequence (P62937 whole entry) above
KRAS G12V, sequence (P01116 other isoform, or with tags, fused parts or gaps G12V): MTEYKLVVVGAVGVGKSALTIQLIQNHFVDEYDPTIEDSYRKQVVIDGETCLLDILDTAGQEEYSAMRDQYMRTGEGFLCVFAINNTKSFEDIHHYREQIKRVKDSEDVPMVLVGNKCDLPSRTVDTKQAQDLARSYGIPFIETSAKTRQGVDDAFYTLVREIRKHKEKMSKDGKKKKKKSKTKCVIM
KRAS G12V, sequence (P62937 whole entry): as the sequence (P62937 whole entry) above
KRAS G12C, sequence (P01116-2 other isoform, or with tags, fused parts or gaps G12C): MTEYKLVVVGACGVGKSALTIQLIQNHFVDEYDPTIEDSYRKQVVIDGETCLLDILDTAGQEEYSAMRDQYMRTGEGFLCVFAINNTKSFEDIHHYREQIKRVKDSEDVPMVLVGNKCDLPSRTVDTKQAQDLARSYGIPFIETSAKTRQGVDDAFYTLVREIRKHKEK
KRAS G12C, sequence (P62937 whole entry): as the sequence (P62937 whole entry) above
NRAS G12C, sequence (P01111 whole entry G12C): as the sequence (P01111 whole entry Q61K) above, with G12C, K61Q counted along it
NRAS G12C, sequence (P62937 whole entry): as the sequence (P62937 whole entry) above
NRAS Q61R, sequence (P01111 whole entry Q61R): as the sequence (P01111 whole entry Q61K) above, with K61R counted along it
NRAS Q61R, sequence (P62937 whole entry): as the sequence (P62937 whole entry) above
KRAS G12D, sequence (P01116 other isoform, or with tags, fused parts or gaps G12D): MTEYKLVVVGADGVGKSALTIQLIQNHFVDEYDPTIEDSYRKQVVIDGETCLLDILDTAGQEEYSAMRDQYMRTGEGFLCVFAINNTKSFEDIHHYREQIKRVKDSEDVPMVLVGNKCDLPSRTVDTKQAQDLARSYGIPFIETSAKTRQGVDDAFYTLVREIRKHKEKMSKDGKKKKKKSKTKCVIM
KRAS G12D, sequence (P62937 whole entry): as the sequence (P62937 whole entry) above
KRAS G13D, sequence (P01116 other isoform, or with tags, fused parts or gaps G13D): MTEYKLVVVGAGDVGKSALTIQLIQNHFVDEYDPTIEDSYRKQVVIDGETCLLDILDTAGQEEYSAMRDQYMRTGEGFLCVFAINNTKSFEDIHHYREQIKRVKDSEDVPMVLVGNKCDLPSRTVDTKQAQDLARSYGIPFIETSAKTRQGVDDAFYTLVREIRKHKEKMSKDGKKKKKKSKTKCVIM
KRAS G13D, sequence (P62937 whole entry): as the sequence (P62937 whole entry) above
KRAS G13C, sequence (P01116 other isoform, or with tags, fused parts or gaps G13C): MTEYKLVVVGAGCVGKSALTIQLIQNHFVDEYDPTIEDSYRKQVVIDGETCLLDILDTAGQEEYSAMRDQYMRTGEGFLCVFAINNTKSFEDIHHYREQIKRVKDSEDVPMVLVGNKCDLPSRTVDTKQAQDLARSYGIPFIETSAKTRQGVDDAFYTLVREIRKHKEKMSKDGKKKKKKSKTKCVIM
KRAS G13C, sequence (P62937 whole entry): as the sequence (P62937 whole entry) above
NRAS WT, sequence (P01111 whole entry): as the sequence (P01111 whole entry Q61K) above, with K61Q counted along it
NRAS WT, sequence (P62937 whole entry): as the sequence (P62937 whole entry) above
KRAS G12S, sequence (P01116 other isoform, or with tags, fused parts or gaps G12S): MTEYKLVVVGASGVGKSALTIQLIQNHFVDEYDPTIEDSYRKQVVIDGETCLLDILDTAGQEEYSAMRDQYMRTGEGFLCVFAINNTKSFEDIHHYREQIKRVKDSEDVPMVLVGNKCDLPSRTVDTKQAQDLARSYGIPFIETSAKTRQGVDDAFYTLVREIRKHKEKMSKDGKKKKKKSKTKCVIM
KRAS G12S, sequence (P62937 whole entry): as the sequence (P62937 whole entry) above

SMILES | IC50 [1] [µM] | IC50 (KRAS G12C) | IC50 (KRAS G12D) | IC50 (KRAS G12S) [µM] | IC50 (KRAS G12V) [µM] | IC50 (KRAS G13C) [µM] | IC50 (KRAS G13D) [µM] | IC50 (KRAS Q61H) [µM] | IC50 (KRAS WT) | IC50 (NRAS G12C) [µM] | IC50 (NRAS Q61K) [µM] | IC50 (NRAS Q61R) | IC50 (NRAS WT) | EC50 [2] [µM]
CCn1c(-c2cccnc2[C@H](C)OC)c2c3cc(ccc31)-c1cc(O)cc(c1)C[C@H](NC(=O)[C@@H]1CCCCCN1C(C)=O)C(=O)N1CCC[C@H](N1)C(=O)OCC(C)(C)C2 [Compound A176] | 1 to 10 | 0.1 to 1 µM | 1 to 10 µM | 1 to 10 | 0.1 to 1 | 0.1 to 1 | 0.1 to 1 | 0.1 to 1 | 0.1 to 1 µM | 0.1 to 1 | 0.1 to 1 | 1 to 10 µM | 0.1 to 1 µM | < 5
CCn1c(-c2cccnc2[C@H](C)OC)c2c3cc(ccc31)-c1cc(O)cc(c1)C[C@H](NC(=O)CC(C)c1ccncc1)C(=O)N1CCC[C@H](N1)C(=O)OCC(C)(C)C2 (some centres unmarked) [Compound A178] | > 10 | 0.1 to 1 µM and 1 to 10 µM | 1 to 10 µM and > 10 µM | 1 to 10 | 1 to 10 | 0.1 to 1 | 1 to 10 | 0.1 to 1 | 0.1 to 1 µM and 1 to 10 µM | 1 to 10 | 1 to 10 | 1 to 10 µM and > 10 µM | 0.1 to 1 µM and 1 to 10 µM | –
CCn1c(-c2cccnc2[C@H](C)OC)c2c3cc(ccc31)-c1cc(O)cc(c1)C[C@H](NC(=O)[C@@H]1[C@@H](C)CCN1C(C)=O)C(=O)N1CCC[C@H](N1)C(=O)OCC(C)(C)C2 [Compound A208] | > 10 | 0.1 to 1 µM | 1 to 10 µM | 1 to 10 | 1 to 10 | 0.1 to 1 | 1 to 10 | 0.1 to 1 | 0.1 to 1 µM | 1 to 10 | 0.1 to 1 | 1 to 10 µM | 0.1 to 1 µM | –
CCn1c(-c2cccnc2[C@H](C)OC)c2c3cc(ccc31)-c1cc(O)cc(c1)C[C@H](NC(=O)[C@H](C(C)C)N(C)C(=O)C1CCC(=O)N1C)C(=O)N1CCC[C@H](N1)C(=O)OCC(C)(C)C2 (some centres unmarked) [Compound A230] | 1 to 10 | 0.01 to 0.1 µM | 0.1 to 1 µM | 0.01 to 0.1 | 0.01 to 0.1 | 0.01 to 0.1 | 0.1 to 1 | 0.01 to 0.1 | 0.01 to 0.1 µM | 0.01 to 0.1 | 0.1 to 1 | 0.1 to 1 µM | 0.01 to 0.1 µM | –
CCn1c(-c2cccnc2[C@H](C)OC)c2c3cc(ccc31)-c1csc(n1)C[C@H](NC(=O)N1CCN(C)CC1)C(=O)N1CCC[C@H](N1)C(=O)OCC(C)(C)C2 [Compound A265, N-((6^3S,4S,Z)-1^1-ethyl-1^2-(2-((S)-1-methoxyethyl)pyridin-3-yl)-10, 10-dimethyl-5,7-dioxo-6^1,6^2,6^3,6^4,6^5,6^6-hexahydro-1^1H-8-oxa-2 (4,2)-thiazola-1 (5,3)-indola-6 (1,3)-pyridazinacycloundecaphane-4-yl)-4-methylpiperazine-1-carboxamide] | 1 to 10 | 0.01 to 0.1 µM | 0.1 to 1 µM | 0.1 to 1 | 0.01 to 0.1 | 0.1 to 1 | 0.1 to 1 | 0.1 to 1 | 0.1 to 1 µM | 0.01 to 0.1 | 0.1 to 1 | 0.1 to 1 µM | 0.1 to 1 µM | –
CCn1c(-c2cccnc2[C@H](C)OC)c2c3cc(ccc31)-c1csc(n1)C[C@H](NC(=O)[C@H](C(C)C)N(C)C(=O)N1[C@H](C)CN(C)C[C@@H]1C)C(=O)N1CCC[C@H](N1)C(=O)OCC(C)(C)C2 [Compound A272] | 1 to 10 | 1 to 10 µM | 1 to 10 µM | 1 to 10 | > 10 | 1 to 10 | 1 to 10 | 0.1 to 1 | 1 to 10 µM | 1 to 10 | 1 to 10 | 1 to 10 µM | 1 to 10 µM | –
CCn1c(-c2cccnc2[C@H](C)OC)c2c3cc(ccc31)-c1cc(c3cn[nH]c3c1)C[C@H](NC(=O)[C@H](C(C)C)N(C)C(C)=O)C(=O)N1CCC[C@H](N1)C(=O)OCC(C)(C)C2 [Compound A388] | 1 to 10 | 1 to 10 µM | > 10 µM | 1 to 10 | 1 to 10 | 0.1 to 1 | 1 to 10 | 0.1 to 1 | 1 to 10 µM | 1 to 10 | 1 to 10 | 1 to 10 µM | 1 to 10 µM | < 5
CCn1c(-c2cccnc2[C@H](C)OC)c2c3cc(ccc31)-c1csc(n1)C[C@H](NC(=O)[C@H](C(C)C)N(C)C(=O)N1CC[C@@]13CCCNC3)C(=O)N1CCC[C@H](N1)C(=O)OCC(C)(C)C2 [Compound A435] | 1 to 10 | 0.1 to 1 µM | 0.1 to 1 µM | 0.1 to 1 | 1 to 10 | 0.1 to 1 | 0.1 to 1 | 0.1 to 1 | 0.1 to 1 µM | 0.1 to 1 | 1 to 10 | 1 to 10 µM | 0.1 to 1 µM | < 5
CCn1c(-c2cccnc2[C@H](C)OC)c2c3cc(ccc31)-c1csc(n1)C[C@H](NC(=O)[C@H](C(C)C)N(C)C(=O)N1CC[C@@H]3CN(C)C[C@@H]31)C(=O)N1CCC[C@H](N1)C(=O)OCC(C)(C)C2 [Compound A470] | 0.1 to 1 | 1 to 10 µM | 1 to 10 µM | 1 to 10 | 1 to 10 | 0.1 to 1 | 1 to 10 | 0.1 to 1 | 1 to 10 µM | 1 to 10 | 1 to 10 | 1 to 10 µM | 1 to 10 µM | < 5
CCn1c(-c2cccnc2[C@H](C)OC)c2c3cc(ccc31)-c1csc(n1)C[C@H](NC(=O)[C@H](C(C)C)N(C)C(=O)N1C[C@@H]3[C@@H](C1)OCCN3C)C(=O)N1CCC[C@H](N1)C(=O)OCC(C)(C)C2 [Compound A472] | 0.01 to 0.1 | 0.1 to 1 µM | 1 to 10 µM | 0.1 to 1 | 0.1 to 1 | 0.1 to 1 | 1 to 10 | 0.1 to 1 | 0.1 to 1 µM | 0.1 to 1 | 0.1 to 1 | 0.1 to 1 µM | 0.1 to 1 µM | –
